The source of these data is ChEMBL document CHEMBL3046556, “Microwave-assisted synthesis and antimicrobial screening of new imidazole derivatives bearing 4-thiazolidinone nucleus” (2013).

For orientation: MIC means the smallest concentration in the dilution series that meets the test's criterion for growth inhibition.

The structures appear in SMILES notation. Converted amounts (≈) assume the structure as drawn. The source made the active and inactive calls.

In test [1] the test system is Aspergillus clavatus. As to the kind of experiment: Antifungal activity against Aspergillus clavatus MTCC 1323 assessed as growth inhibition after 48 hr by broth dilution method. Format: functional. The note with it: MTCC 1323, 48 h.
The test system of test [2] is Pseudomonas aeruginosa. As to the kind of experiment: Antibacterial activity against Pseudomonas aeruginosa MTCC 1688 assessed as growth inhibition after 24 hr by NCCLS broth dilution method. Type of test: functional. The settings on record: MTCC 1688, 24 h. Background: Dilution methods test growth across graded concentrations, often in twofold steps.
The test system of test [3] is Escherichia coli. As to the kind of experiment: Antibacterial activity against Escherichia coli MTCC 443 assessed as growth inhibition after 24 hr by NCCLS broth dilution method. Type of test: functional. The settings on record: MTCC 443, 24 h.
Test [4] deals with Aspergillus niger. Nature of the test: Antifungal activity against Aspergillus niger MTCC 282 assessed as growth inhibition after 48 hr by broth dilution method. Type of test: functional. The settings on record: MTCC 282, 48 h.
The subject of test [5] is Candida albicans. As to the kind of experiment: Antifungal activity against Candida albicans MTCC 227 assessed as growth inhibition after 48 hr by broth dilution method. Format: functional. The settings on record: MTCC 227, 48 h.
Test [6] concerns Streptococcus pyogenes. As to the kind of experiment: Antibacterial activity against Streptococcus pyogenes MTCC 442 assessed as growth inhibition after 24 hr by NCCLS broth dilution method. Type of test: functional. The settings on record: MTCC 442, 24 h.
Test [7] has as its system Staphylococcus aureus. Nature of the test: Antibacterial activity against Staphylococcus aureus MTCC 96 assessed as growth inhibition after 24 hr by NCCLS broth dilution method. Format: functional. The settings on record: MTCC 96, 24 h.
The subject of test [8] is Staphylococcus aureus. As to the kind of experiment: Antibacterial activity against Staphylococcus aureus MTCC 96 assessed as growth inhibition at 12.5 to 1000 ug/mL after 24 hr by NCCLS broth dilution method. Type of test: functional, organism-based.
Test [9] deals with Escherichia coli. Nature of the test: Antibacterial activity against Escherichia coli MTCC 443 assessed as growth inhibition at 12.5 to 1000 ug/mL after 24 hr by NCCLS broth dilution method. Type of test: functional, organism-based.
Test [10] deals with Aspergillus clavatus. As to the kind of experiment: Antifungal activity against Aspergillus clavatus MTCC 1323 assessed as growth inhibition at 12.5 to 1000 ug/mL after 48 hr by broth dilution method. Format: functional, organism-based.
Test [11] relates to Streptococcus pyogenes. Nature of the test: Antibacterial activity against Streptococcus pyogenes MTCC 442 assessed as growth inhibition at 12.5 to 1000 ug/mL after 24 hr by NCCLS broth dilution method. Format: functional, organism-based.
Test [12] concerns Candida albicans. Nature of the test: Antifungal activity against Candida albicans MTCC 227 assessed as growth inhibition at 12.5 to 1000 ug/mL after 48 hr by broth dilution method. Format: functional, organism-based.
Test [13] relates to Pseudomonas aeruginosa. Nature of the test: Antibacterial activity against Pseudomonas aeruginosa MTCC 1688 assessed as growth inhibition at 12.5 to 1000 ug/mL after 24 hr by NCCLS broth dilution method. Format: functional, organism-based.
For test [14], the system named is Aspergillus niger. Nature of the test: Antifungal activity against Aspergillus niger MTCC 282 assessed as growth inhibition at 12.5 to 1000 ug/mL after 48 hr by broth dilution method. Type of test: functional, organism-based.

Consider `CC1=N/C(=C\c2cccc(O)c2)C(=O)N1c1ccc(/C(C)=N/N=C2/NC(=O)CS2)cc1`, for which the MIC turned out to be 250 µg/mL (≈ 577 µM) with Aspergillus clavatus [1]; 250 µg/mL (≈ 577 µM) in the test on Pseudomonas aeruginosa [2]; 250 µg/mL (≈ 577 µM) in the test with Escherichia coli [3]; 250 µg/mL (≈ 577 µM) with Aspergillus niger [4]; 500 µg/mL (≈ 1150 µM) with Candida albicans [5]; 250 µg/mL (≈ 577 µM) in the test with Streptococcus pyogenes [6]. The MIC in the test with Staphylococcus aureus [7] was 100 µg/mL (≈ 231 µM).
Consider `COc1ccccc1/C=C1/N=C(C)N(c2ccc(C(C)=O)cc2)C1=O`, for which the “growth inhibition (GI)” value in the test on Staphylococcus aureus [8], with Escherichia coli [9], in the test on Aspergillus clavatus [10], in the test with Streptococcus pyogenes [11], in the test on Candida albicans [12] and in the test with Pseudomonas aeruginosa [13] was “inactive” each time. Also, the MIC in the test with Aspergillus clavatus [1] and in the test on Aspergillus niger [4] was 250 µg/mL (≈ 748 µM) throughout.
As to `CC(=O)c1ccc(N2C(=O)/C(=C\c3ccccc3O)N=C2C)cc1`, the “growth inhibition (GI)” value in the test with Staphylococcus aureus [8], in the test with Escherichia coli [9], in the test on Streptococcus pyogenes [11] and in the test on Pseudomonas aeruginosa [13] was “inactive” in each case. Besides, the MIC in the test on Aspergillus clavatus [1] and with Candida albicans [5] was 1000 µg/mL (≈ 3120 µM) each time.
Consider `COc1ccc(/C=C2/N=C(C)N(c3ccc(/C(C)=N/NC(N)=S)cc3)C2=O)cc1`, for which the “growth inhibition (GI)” value with Escherichia coli [9] was “inactive”. Also, the MIC in the test on Pseudomonas aeruginosa [2], in the test on Streptococcus pyogenes [6] and in the test on Staphylococcus aureus [7] was 500 µg/mL (≈ 1230 µM) throughout. The “growth inhibition (GI)” value in the test on Aspergillus clavatus [10], in the test on Aspergillus niger [14] and with Candida albicans [12] was “Active” in each case.
With `CC1=N/C(=C\c2ccccc2Cl)C(=O)N1c1ccc(/C(C)=N/N=C2/NC(=O)CS2)cc1`, the MIC in the test on Aspergillus clavatus [1] came out at 1000 µg/mL (≈ 2210 µM); in the test on Pseudomonas aeruginosa [2] it was 100 µg/mL (≈ 221 µM); with Escherichia coli [3] it was 500 µg/mL (≈ 1110 µM); with Aspergillus niger [4], 1000 µg/mL (≈ 2210 µM); in the test with Candida albicans [5] it was 1000 µg/mL (≈ 2210 µM); in the test on Streptococcus pyogenes [6], 250 µg/mL (≈ 553 µM). The minimal inhibitory concentration (MIC) with Staphylococcus aureus [7] was determined as 500 µg/mL (≈ 1110 µM).
In the case of `COC1=CC(=O)C[C@@H](C)[C@]12Oc1c(Cl)c(OC)cc(OC)c1C2=O` [GRISEOFULVIN], the MIC in the test with Aspergillus clavatus [1] was determined as 100 µg/mL (≈ 283 µM); with Aspergillus niger [4] it was 100 µg/mL (≈ 283 µM); with Candida albicans [5], 500 µg/mL (≈ 1420 µM).
For `CC1=N/C(=C\c2cccc(C)c2)C(=O)N1c1ccc(/C(C)=N/N=C2/NC(=O)CS2)cc1`, the MIC came out at 100 µg/mL (≈ 232 µM) with Aspergillus clavatus [1]; 250 µg/mL (≈ 579 µM) in the test with Pseudomonas aeruginosa [2]; 500 µg/mL (≈ 1160 µM) in the test with Escherichia coli [3]; 250 µg/mL (≈ 579 µM) with Aspergillus niger [4]; 500 µg/mL (≈ 1160 µM) in the test on Candida albicans [5]; 100 µg/mL (≈ 232 µM) with Streptococcus pyogenes [6]. The MIC in the test on Staphylococcus aureus [7] was 100 µg/mL (≈ 232 µM).
As to `CC1=N/C(=C\c2ccc(Cl)cc2)C(=O)N1c1ccc(/C(C)=N/N=C2/NC(=O)CS2)cc1`, the MIC was 250 µg/mL (≈ 553 µM) in the test on Aspergillus clavatus [1]; 250 µg/mL (≈ 553 µM) in the test on Pseudomonas aeruginosa [2]; 1000 µg/mL (≈ 2210 µM) in the test on Escherichia coli [3]; 500 µg/mL (≈ 1110 µM) in the test with Aspergillus niger [4]; 500 µg/mL (≈ 1110 µM) with Candida albicans [5]; 100 µg/mL (≈ 221 µM) in the test on Streptococcus pyogenes [6]. In the test with Staphylococcus aureus [7], the MIC was found to be 250 µg/mL (≈ 553 µM).
As to `CC1=N/C(=C\c2ccccc2C)C(=O)N1c1ccc(/C(C)=N/N=C2/NC(=O)CS2)cc1`, the MIC with Aspergillus clavatus [1] was found to be 250 µg/mL (≈ 579 µM); with Pseudomonas aeruginosa [2], 250 µg/mL (≈ 579 µM); in the test with Escherichia coli [3], 250 µg/mL (≈ 579 µM); with Aspergillus niger [4], 100 µg/mL (≈ 232 µM); in the test with Candida albicans [5], 500 µg/mL (≈ 1160 µM); with Streptococcus pyogenes [6], 25 µg/mL (≈ 57.9 µM). Moreover, the minimal inhibitory concentration (MIC) in the test with Staphylococcus aureus [7] was determined as 25 µg/mL (≈ 57.9 µM).
Take `CC1=N/C(=C/c2ccccc2O)C(=O)N1c1ccc(/C(C)=N/NC(N)=S)cc1`: the “growth inhibition (GI)” value in the test on Escherichia coli [9] was “inactive”. In addition, the MIC in the test with Pseudomonas aeruginosa [2], in the test with Streptococcus pyogenes [6] and in the test with Staphylococcus aureus [7] was 500 µg/mL (≈ 1270 µM) throughout. In addition, the “growth inhibition (GI)” value in the test with Aspergillus clavatus [10], with Aspergillus niger [14] and in the test with Candida albicans [12] was “Active” throughout.
Consider `CC1(C)S[C@@H]2[C@H](NC(=O)[C@H](N)c3ccccc3)C(=O)N2[C@H]1C(=O)O` [AMPICILLIN], for which the MIC worked out at 100 µg/mL (≈ 286 µM) with Pseudomonas aeruginosa [2], 250 µg/mL (≈ 715 µM) in the test with Escherichia coli [3], 100 µg/mL (≈ 286 µM) in the test on Streptococcus pyogenes [6] and 100 µg/mL (≈ 286 µM) with Staphylococcus aureus [7].
Regarding `CC1=N/C(=C/c2cccc(C)c2)C(=O)N1c1ccc(/C(C)=N/NC(N)=S)cc1`, the MIC in the test with Escherichia coli [3] stood at 1000 µg/mL (≈ 2550 µM); in the test with Staphylococcus aureus [7], 500 µg/mL (≈ 1280 µM). The “growth inhibition (GI)” value with Aspergillus clavatus [10], in the test on Aspergillus niger [14] and in the test on Candida albicans [12] was “Active” in each case. The “growth inhibition (GI)” value in the test with Streptococcus pyogenes [11] and in the test with Pseudomonas aeruginosa [13] was “inactive” each time.
